Common to all, as to type: biochemical
The target of experiment [1] is T1, Aurora B kinase (Homo sapiens, UniProt Q96GD4).
T1 construct: purchased Cell signaling
Kind of experiment: Aurora B kinase assay ([γ-33P]ATP, CHOCKtide substrate). In a few lines:
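Recombinant Aurora A (1 ng) or Aurora B (2.5 ng) incubated with test compound, CHOCKtide (1 μg) and [γ-33P]ATP/ATP at 10 μM (Aurora A) or 40 μM (Aurora B), 30 min at 33 °C. Stopped with phosphoric acid; filter-bound 33P counted; IC50 = half-maximal inhibition.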

Experiment [2] addresses T2, c-Met kinase (Homo sapiens, UniProt P08581).
T2 construct: recombinant N-terminal 6×His-tagged c-Met kinase domain construct expressed from baculovirus; 6xHis (N); made in house
Put plainly: c-Met kinase assay (33P incorporation into Poly(Glu-Tyr)). Conditions: 500 nM test compound. An outline of the steps: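 Recombinant N-terminal 6×His-tagged c-Met kinase domain (baculovirus-expressed, 5 ng) acted on Poly(Glu-Tyr) 4:1 with 100 μM ATP plus [33P]-γ-ATP in MOPS pH 7.0 buffer, 30 min at 30° C. Compound was at 500 nM. Filter-retained radioactivity was compared with the DMSO control to give percent inhibition.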

In experiment [3] the target is T3, Flt3 kinase (Homo sapiens, UniProt P36888).
T3 construct: recombinant N-terminal 6×His-tagged Flt3 kinase domain construct expressed from baculovirus; 6xHis (N); made in house
T3 sequence (P36888 610-943 limits assumed): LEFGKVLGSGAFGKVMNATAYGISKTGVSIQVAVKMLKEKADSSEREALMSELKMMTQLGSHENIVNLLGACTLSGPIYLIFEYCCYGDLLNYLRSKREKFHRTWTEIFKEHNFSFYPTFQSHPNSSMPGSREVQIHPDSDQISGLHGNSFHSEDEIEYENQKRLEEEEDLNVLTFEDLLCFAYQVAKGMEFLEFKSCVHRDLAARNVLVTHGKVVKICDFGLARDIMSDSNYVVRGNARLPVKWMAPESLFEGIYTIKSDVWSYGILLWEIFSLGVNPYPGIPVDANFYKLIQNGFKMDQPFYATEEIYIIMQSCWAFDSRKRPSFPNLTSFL
Put plainly: Flt3 kinase assay (33P incorporation into Poly(Glu-Tyr)). Conditions: 100 nM test compound; read-out: Inhibition at 100 nM (%) Flt-3. As to the method: Inhibition of Flt3 kinase activity by compounds disclosed herein was quantified by measuring the amount of [^33P] incorporated into the substrate in the presence of a test compound. Briefly, a reaction mixture of 25 μL final volume containing 5 ng of Flt3 kinase (obtained by purifying recombinant N-terminal 6×His-tagged Flt3 kinase domain construct expressed from baculovirus), 5 μg of the substrate (Poly (Glu-Tyr, 4:1, Sigma)), kinase reaction buffer (20 mM MOPS pH 7.0, 1 mM EDTA, 5% glycerol, 0.01% Brij-35, 0.1% β-mercaptoethanol, 1 mg/mL BSA, 100 μM ATP, 0.1 μCi per well [^33P]-γ-ATP (2,500-3,000 Ci/mmol)), and a test compound (100 nM, diluted with 4% DMSO) or DMSO (as the control) was incubated at 30° C. for 30 minutes. The reaction was stopped by adding 5 μL of 3% phosphoric acid solution. The resultant reaction solution was then harvested onto a filter plate (UniFilter-96 GF/B, PerkinElmer), washed 20 times for 5 min with d.d. H2O, and followed by the addition of 30 μL of MicroScint™-20 Cocktail (PerkinElmer). The plate was then sealed and counted using a TopCount scintillation detector (PerkinElmer). The percentage of inhibition rate of the test compound was calculated by dividing the retained radioactivity of the test sample with the retained radioactivity of the control sample and shown in Table 3.

The target in experiment [4] is T4, PDGFR-β kinase (Homo sapiens, UniProt P09619).
T4 construct: recombinant N-terminal 6×His-tagged PDGFR-β kinase domain construct expressed by baculovirus; 6xHis (N); made in house
T4 sequence (P09619 600-962 limits assumed): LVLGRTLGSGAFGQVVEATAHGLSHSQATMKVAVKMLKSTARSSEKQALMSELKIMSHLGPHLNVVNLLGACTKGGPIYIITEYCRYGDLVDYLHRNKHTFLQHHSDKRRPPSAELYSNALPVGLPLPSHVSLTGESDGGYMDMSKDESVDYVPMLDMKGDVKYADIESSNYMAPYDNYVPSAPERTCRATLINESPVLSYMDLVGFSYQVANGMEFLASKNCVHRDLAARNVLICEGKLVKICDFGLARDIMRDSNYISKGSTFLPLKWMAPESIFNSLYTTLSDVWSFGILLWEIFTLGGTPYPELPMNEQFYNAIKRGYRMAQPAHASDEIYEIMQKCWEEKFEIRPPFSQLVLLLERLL
Put plainly: PDGFR-β kinase assay (33P incorporation into Poly(Glu-Tyr)). Conditions: 500 nM test compound. As to the method:
Inhibition of PDGFR-β kinase activity by compounds disclosed herein was quantified by measuring the amount of [^33P] incorporated into the substrate in the presence of a test compound. Briefly, a reaction mixture of 25 μL final volume containing 55 ng of PDGFR-β kinase (obtained by purifying recombinant N-terminal 6×His-tagged PDGFR-β kinase domain construct expressed by baculovirus), 2.5 μg of the substrate (Poly (Glu-Tyr, 4:1, Sigma)), kinase reaction buffer (20 mM MOPS pH 7.0, 1 mM EDTA, 5% glycerol, 0.01% Brij-35, 0.1% β-mercaptoethanol, 1 mg/mL BSA, 2 mM MnCl2, 30 μM ATP, 0.1 μCi per well [^33P]-γ-ATP (2,500-3,000 Ci/mmol)), and a test compound (500 nM, diluted with 4% DMSO) or DMSO (as the control) was incubated at 30° C. for 30 minutes. The reaction was stopped by adding 5 μL of 3% phosphoric acid solution. The resultant reaction solution was then harvested onto a filter plate (UniFilter-96 GF/B, PerkinElmer), washed 20 times for 5 min with d.d. H2O, and followed by the addition of 30 μL of MicroScint™-20 Cocktail (PerkinElmer). The plate was then sealed and counted using a TopCount scintillation detector (PerkinElmer). The percentage of inhibition rate of the test compound was calculated by dividing the retained radioactivity of the test sample with the retained radioactivity of the control sample and shown in Table 3.

T1 sequence (Q96GD4 whole entry): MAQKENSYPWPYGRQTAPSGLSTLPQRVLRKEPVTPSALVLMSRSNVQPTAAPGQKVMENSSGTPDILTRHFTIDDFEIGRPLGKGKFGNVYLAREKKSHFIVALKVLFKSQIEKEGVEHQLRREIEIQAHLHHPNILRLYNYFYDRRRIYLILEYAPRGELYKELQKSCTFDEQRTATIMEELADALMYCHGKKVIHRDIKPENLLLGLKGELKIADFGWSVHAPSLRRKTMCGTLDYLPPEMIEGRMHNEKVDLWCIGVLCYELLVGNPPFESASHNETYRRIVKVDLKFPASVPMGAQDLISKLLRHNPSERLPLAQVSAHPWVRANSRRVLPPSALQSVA
T2 sequence (P08581 1078-1345 limits assumed): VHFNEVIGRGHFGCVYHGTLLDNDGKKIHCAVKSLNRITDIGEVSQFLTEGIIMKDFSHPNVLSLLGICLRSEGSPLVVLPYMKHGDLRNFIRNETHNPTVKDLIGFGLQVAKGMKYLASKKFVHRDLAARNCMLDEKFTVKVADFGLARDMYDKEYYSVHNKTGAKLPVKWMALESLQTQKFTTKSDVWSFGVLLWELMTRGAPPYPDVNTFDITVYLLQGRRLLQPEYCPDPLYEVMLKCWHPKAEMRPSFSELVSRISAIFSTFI

The compound `CCOC(=O)CCc1c(/C=C2\C(=O)Nc3ccccc32)[nH]c2c1C(=O)CCC2` [DCB-70049, (Z)-3-((3-(3-ethoxy-3-oxopropyl)-4-oxo-4,5,6,7-tetrahydro-1H-indol-2-yl)methylene)indolin-2-one] yielded an IC50 in experiment [1] of 5.92 µM. Moreover, the inhibition at 1 µM in experiment [1] (1.0 μM test compound) was 2.3%. Further, the values for the inhibition at 0.5 µM in experiment [2] and in experiment [4] were 26% and 54%, respectively. Moreover, in experiment [3], the inhibition at 0.1 µM was found to be 90.2%.

Consider `O=C(O)CCc1c(/C=C2\C(=O)Nc3ccccc32)[nH]c2c1C(=O)CCC2` [DCB-70052, (Z)-3-((3-carboxyethyl-4-oxo-4,5,6,7-tetrahydro-1H-indol-2-yl)methylene)indolin-2-one], for which, in experiment [1] (1.0 μM test compound), the inhibition at 1 µM was 13%. Besides, the inhibition at 0.5 µM in experiment [2] stood at 14.3%; in experiment [4] it was 54.8%. Besides, the inhibition at 0.1 µM in experiment [3] came to 72.1%.

Turning to `CCOC(=O)CCc1c(/C=C2\C(=O)Nc3ccc(F)cc32)[nH]c2c1C(=O)CCC2` [DCB-70053, (Z)-5-fluoro-3-((3-(3-ethoxy-3-oxopropyl)-4-oxo-4,5,6,7-tetrahydro-1H-indol-2-yl)methylene)indolin-2-one], the “Aurora B kinase assay Inhibition at 1.0 μM (%)” value in experiment [1] (1.0 μM test compound, 1 µM) is recorded as 3.5%. The “Inhibition at 500 nM (%) c-Met” value in experiment [2] (0.5 µM) came to 17.4%. In experiment [3], the inhibition at 0.1 µM stood at 97.3%. Besides, the inhibition at 0.5 µM in experiment [4] amounted to 82.3%.

Consider `O=C(O)CCc1c(/C=C2\C(=O)Nc3ccc(F)cc32)[nH]c2c1C(=O)CCC2` [DCB-70055, (Z)-5-fluoro-3-((3-carboxyethyl-4-oxo-4,5,6,7-tetrahydro-1H-indol-2-yl)methylene)indolin-2-one], for which, in experiment [1] (1.0 μM test compound), the inhibition at 1 µM was 11.6%. In addition, the values for the inhibition at 0.5 µM in experiment [2] and in experiment [4] were 21.7% and 83.5%, respectively. Also, the inhibition at 0.1 µM in experiment [3] was 86.5%.

Turning to `CCOC(=O)CCc1c(/C=C2\C(=O)Nc3ccc(Br)cc32)[nH]c2c1C(=O)CCC2` [DCB-70056, (Z)-5-bromo-3-((3-(3-ethoxy-3-oxopropyl)-4-oxo-4,5,6,7-tetrahydro-1H-indol-2-yl)methylene)indolin-2-one], the inhibition at 1 µM in experiment [1] (1.0 μM test compound) turned out to be 7.2%. In addition, the inhibition at 0.5 µM in experiment [2] is 30.9%; in experiment [4], 84.1%. In addition, the inhibition at 0.1 µM in experiment [3] turned out to be 99.2%.

In the case of `O=C(O)CCc1c(/C=C2\C(=O)Nc3ccc(Br)cc32)[nH]c2c1C(=O)CCC2` [DCB-70057, (Z)-5-bromo-3-((3-carboxyethyl-4-oxo-4,5,6,7-tetrahydro-1H-indol-2-yl)methylene)indolin-2-one], the inhibition at 1 µM in experiment [1] (1.0 μM test compound) came out at 6.8%. Moreover, the results for the inhibition at 0.5 µM in experiment [2] and in experiment [4] were 19.3% and 89.3%, respectively. For the same compound, the inhibition at 0.1 µM in experiment [3] was 92.8%.

For `CCOC(=O)CCc1c(/C=C2\C(=O)Nc3ccc(-c4ccc(O)c(OC)c4)cc32)[nH]c2c1C(=O)CCC2` [DCB-70058, (Z)-5-(4-hydroxyl-3-methoxyphenyl)-3-((3-(3-ethoxy-3-oxopropyl)-4-oxo-4,5,6,7-tetrahydro-1H-indol-2-yl)methylene)indolin-2-one], the inhibition at 1 µM in experiment [1] (1.0 μM test compound) is -1%. The inhibition at 0.5 µM in experiment [2] is 9.7%; in experiment [4], 30.5%. Further, the inhibition at 0.1 µM in experiment [3] turned out to be 55.1%.

Regarding `COc1cc(-c2ccc3c(c2)/C(=C/c2[nH]c4c(c2CCC(=O)O)C(=O)CCC4)C(=O)N3)ccc1O` [DCB-70059, (Z)-5-(4-hydroxyl-3-methoxyphenyl)-3-((3-carboxyethyl-4-oxo-4,5,6,7-tetrahydro-1H-indol-2-yl)methylene)indolin-2-one], the inhibition at 1 µM in experiment [1] (1.0 μM test compound) came out at 12.4%. In addition, the inhibition at 0.5 µM is 16.3% in experiment [2] and 38.3% in experiment [4]. In addition, in experiment [3], the inhibition at 0.1 µM is 21.5%.

With `CCOC(=O)CCc1c(/C=C2\C(=O)Nc3ccc([N+](=O)[O-])cc32)[nH]c2c1C(=O)CCC2` [DCB-70062, (Z)-5-nitro-3-((3-(3-ethoxy-3-oxopropyl)-4-oxo-4,5,6,7-tetrahydro-1H-indol-2-yl)methylene)indolin-2-one], in experiment [1] (1.0 μM test compound), the inhibition at 1 µM is -4.1%. The values for the inhibition at 0.5 µM in experiment [2] and in experiment [4] were 34.1% and 67.5%, respectively. Moreover, in experiment [3], the inhibition at 0.1 µM was 91.6%.

`O=C(O)CCc1c(/C=C2\C(=O)Nc3ccc([N+](=O)[O-])cc32)[nH]c2c1C(=O)CCC2` [DCB-70063, (Z)-5-nitro-3-((3-carboxyethyl-4-oxo-4,5,6,7-tetrahydro-1H-indol-2-yl)methylene)indolin-2-one]: in experiment [1] (1.0 μM test compound), the inhibition at 1 µM was found to be 3.4%. The inhibition at 0.5 µM in experiment [2] was found to be 19.9%; in experiment [4], 79.7%. For the same compound, the inhibition at 0.1 µM in experiment [3] is 74.7%.

On to `CCOC(=O)CCc1c(/C=C2\C(=O)Nc3ccc(S(=O)(=O)NC)cc32)[nH]c2c1C(=O)CCC2` [DCB-70064, (Z)-5-(N-methylsulfamoyl)-3-((3-(3-ethoxy-3-oxopropyl)-4-oxo-4,5,6,7-tetrahydro-1H-indol-2-yl)methylene)indolin-2-one], for which, in experiment [1] (1.0 μM test compound), the inhibition at 1 µM came to 22.2%. Further, the inhibition at 0.5 µM in experiment [2] stood at 48.1%; in experiment [4], 56.7%. In addition, the inhibition at 0.1 µM in experiment [3] came out at 25.7%.

Take `CNS(=O)(=O)c1ccc2c(c1)/C(=C/c1[nH]c3c(c1CCC(=O)O)C(=O)CCC3)C(=O)N2` [DCB-70065, (Z)-5-(N-methylsulfamoyl)-3-((3-carboxyethyl-4-oxo-4,5,6,7-tetrahydro-1H-indol-2-yl)methylene)indolin-2-one]: in experiment [1] (1.0 μM test compound), the inhibition at 1 µM was 25.6%. The inhibition at 0.5 µM in experiment [2] was 29.1%; in experiment [4], 17.3%. Also, in experiment [3], the inhibition at 0.1 µM is -6.8%.

Regarding `CCOC(=O)CCc1c(/C=C2\C(=O)Nc3cc(-c4ccc(O)cc4)ccc32)[nH]c2c1C(=O)CCC2` [DCB-70066, (Z)-6-(4-hydroxyphenyl)-3-((3-(3-ethoxy-3-oxopropyl)-4-oxo-4,5,6,7-tetrahydro-1H-indol-2-yl)methylene)indolin-2-one], in experiment [1] (1.0 μM test compound), the inhibition at 1 µM amounted to 25.3%. Moreover, the inhibition at 0.5 µM in experiment [2] was determined as 15.2%; in experiment [4] it was 85.4%. The inhibition at 0.1 µM in experiment [3] came to 38.6%.

As for `CCOC(=O)CCc1c(/C=C2\C(=O)Nc3ccc(-c4ccc(OC)c(OC)c4)cc32)[nH]c2c1C(=O)CCC2` [DCB-70067, (Z)-5-(3,4-dimethoxyphenyl)-3-((3-(3-ethoxy-3-oxopropyl)-4-oxo-4,5,6,7-tetrahydro-1H-indol-2-yl)methylene)indolin-2-one], in experiment [1] (1.0 μM test compound), the inhibition at 1 µM was -1.3%. Moreover, the inhibition at 0.5 µM in experiment [2] stood at 17%; in experiment [4], 22%. Further, the inhibition at 0.1 µM in experiment [3] was found to be 21.2%.

The IC50 is the concentration that inhibits the measured activity by half. High values mean lower potency, low ones higher potency. Usually inhibition stands for the relative decrease from the control value, in per cent. One may read the Inhibition as the percentage by which the read-out fell short of the control.

Source of the values: US7897602B2, “Indolinone compounds as kinase inhibitors” (Development Center for Biotechnology, priority 2009, dated 2011).
